The numbers were not newly measured in patent US6863905B1, “Enhanced iodine treatment of drinking water” (Shanbrom Technologies, LLC, priority 2002, dated 2005), which cites them from elsewhere.

Values after ≈ are worked out from the molar mass of the structure shown.

The conditions of this data set: at 20° C.

Turning to `II` [iodine], the solubility in water is 300 µg/mL (≈ 1180 µM).
